The text below walks through data of US20250122225A1, “MASP-2 INHIBITORS AND METHODS OF USE” (Omeros Corporation, priority 2023, published 2025).

Where a name gives a salt, the structure may show the parent alone.

For orientation: Ki means the dissociation constant of the complex between target and ligand, obtained from inhibition or displacement. Low readings indicate tighter binding, high ones weaker binding.

For one assay, the target named is T1, MASP-2 (CCP1-CCP2-SP) (Homo sapiens, UniProt O00187).
T1 construct: 15 μL of Enzyme MASP-2 (CCP1-CCP2-SP) in Assay Buffer
T1 sequence (O00187 445-686 limits assumed): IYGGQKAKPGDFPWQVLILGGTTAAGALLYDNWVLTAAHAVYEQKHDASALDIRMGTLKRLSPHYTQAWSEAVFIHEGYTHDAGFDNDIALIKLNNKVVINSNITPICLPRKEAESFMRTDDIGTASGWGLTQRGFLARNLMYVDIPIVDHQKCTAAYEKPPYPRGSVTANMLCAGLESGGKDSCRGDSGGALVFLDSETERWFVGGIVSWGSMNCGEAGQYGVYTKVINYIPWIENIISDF
T1 sequence (O00187 287-444 partner limits assumed): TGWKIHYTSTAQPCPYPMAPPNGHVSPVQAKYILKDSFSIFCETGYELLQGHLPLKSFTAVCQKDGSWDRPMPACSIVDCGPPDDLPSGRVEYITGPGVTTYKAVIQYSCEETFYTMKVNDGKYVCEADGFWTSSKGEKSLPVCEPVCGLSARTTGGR
In words: Enzymatic assay for MASP-2 inhibitory activity (fluorogenic substrate). It is filed as biochemical. The essentials:
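Fluorescence was normalized between no-enzyme and DMSO-only controls to derive % activity, with IC50 taken as equivalent to Ki except for tight-binding inhibitors. Reactions ran 20 min at room temperature in HEPES pH 7.4/NaCl/Tween 20 buffer, using the C2-derived fluorogenic substrate, before acetic acid stop.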

The target of a further assay is T2, human α-thrombin (Homo sapiens, UniProt P00734).
T2 construct: enzyme (human α-thrombin (BioPharm® Lab.)) in assay buffer; purchased BioPharm® Lab
The assay can be described thus: Enzymatic assay for thrombin (fluorogenic peptide substrate Boc-VPR-AMC). It is filed as biochemical. The essentials:
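Assay conditions kept the reaction linear in time, enzyme and substrate, so IC50 approximated Ki apart from tight- or slow-binding cases. Boc-VPR-AMC cleavage by human α-thrombin proceeded 20 min at room temperature in Hepes pH 7.4/NaCl/Tween 20 buffer, then was acid-quenched and read by fluorescence.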

Turning to `Cc1cccc(CNc2nc(Cl)c3n(c2=O)[C@H](C(=O)NCc2cc4cnccc4[nH]2)CC3)c1` [Compound 114, (S)-N-((1H-pyrrolo[3,2-c]pyridin-2-yl)methyl)-1-chloro-3-((3-methylbenzyl)amino)-4-oxo-4,6,7,8-tetrahydropyrrolo[1,2-a]pyrazine-6-carboxamide trifluoroacetate], the values for the Ki on MASP-2 (CCP1-CCP2-SP) and on human α-thrombin were less than 500 nM and 2500 to 10000 nM, respectively.

With `Cc1cccc(CNc2ncc3n(c2=O)[C@H](C(=O)NCc2cc4cnccc4[nH]2)CC3)c1` [Compound 115, (S)-N-((1H-pyrrolo[3,2-c]pyridin-2-yl)methyl)-3-((3-methylbenzyl)amino)-4-oxo-4,6,7,8-tetrahydropyrrolo[1,2-a]pyrazine-6-carboxamide trifluoroacetate], the inhibitory constant (Ki) at MASP-2 (CCP1-CCP2-SP) was less than 500 nM; at human α-thrombin, 500 to 2500 nM.

`Cc1nc(N)ccc1CNC(=O)[C@@H]1CCc2cnc(NCC3CCOCC3)c(=O)n21` [Compound 116, (S)—N-((6-amino-2-methylpyridin-3-yl)methyl)-4-oxo-3-(((tetrahydro-2H-pyran-4-yl)methyl)amino)-4,6,7,8-tetrahydropyrrolo[1,2-a]pyrazine-6-carboxamide]: the Ki on MASP-2 (CCP1-CCP2-SP) was less than 500 nM; at human α-thrombin, 500 to 2500 nM.

Consider `O=C(NCc1cc2cnccc2[nH]1)[C@@H]1CCc2cnc(NCc3cccc(C(F)(F)F)c3)c(=O)n21` [Compound 117, (S)-N-((1H-pyrrolo[3,2-c]pyridin-2-yl)methyl)-4-oxo-3-((3-(trifluoromethyl)benzyl)amino)-4,6,7,8-tetrahydropyrrolo[1,2-a]pyrazine-6-carboxamide trifluoroacetate], for which the Ki at MASP-2 (CCP1-CCP2-SP) is less than 500 nM; on human α-thrombin it was 2500 to 10000 nM.

Regarding `Cc1nc(N)ccc1CNC(=O)[C@@H]1CCc2c(Cl)nc(NCC3CCOC3)c(=O)n21` (stereo partly drawn) [Compound 118, (6S)—N-((6-amino-2-methylpyridin-3-yl)methyl)-1-chloro-4-oxo-3-(((tetrahydrofuran-3-yl)methyl)amino)-4,6,7,8-tetrahydropyrrolo[1,2-a]pyrazine-6-carboxamide], the Ki was less than 500 nM on MASP-2 (CCP1-CCP2-SP) and 10000 to 25000 nM on human α-thrombin.

Consider `O=C(NCc1cc2c(s1)CNC2)[C@@H]1CCc2cnc(N3CC(c4ccccc4)C3)c(=O)n21` [Compound 119, (S)—N-((5,6-dihydro-4H-thieno[2,3-c]pyrrol-2-yl)methyl)-4-oxo-3-(3-phenylazetidin-1-yl)-4,6,7,8-tetrahydropyrrolo[1,2-a]pyrazine-6-carboxamide], for which the inhibition constant (Ki) was 2500 to 10000 nM at MASP-2 (CCP1-CCP2-SP) and more than 25000 nM on human α-thrombin.

In the case of `N#Cc1nc(NCc2ccccc2)c(=O)n2c1CC[C@H]2C(=O)NCc1cc2cnccc2[nH]1` [Compound 121, (S)—N-((1H-pyrrolo[3,2-c]pyridin-2-yl)methyl)-3-(benzylamino)-1-cyano-4-oxo-4,6,7,8-tetrahydropyrrolo[1,2-a]pyrazine-6-carboxamide trifluoroacetate], the Ki on MASP-2 (CCP1-CCP2-SP) was less than 500 nM; on human α-thrombin, 10000 to 25000 nM.

For `Cc1cc(C)cc(CNc2ncc3n(c2=O)[C@H](C(=O)NCc2ccc(N)nc2C)CC32CC2)c1` [Compound 122, (S)—N-((6-amino-2-methylpyridin-3-yl)methyl)-3′-((3,5-dimethylbenzyl)amino)-4′-oxo-6′,7′-dihydro-4′H-spiro[cyclopropane-1,8′-pyrrolo[1,2-a]pyrazine]-6′-carboxamide trifluoroacetate], the inhibitory constant (Ki) at MASP-2 (CCP1-CCP2-SP) and at human α-thrombin was less than 500 nM in each case.

On to `Cc1cc(C)cc(CNc2ncc3n(c2=O)[C@H](C(=O)NCc2cc4cnccc4[nH]2)CC32CC2)c1` [Compound 123, (S)-N-((1H-pyrrolo[3,2-c]pyridin-2-yl)methyl)-3′-((3,5-dimethylbenzyl)amino)-4′-oxo-6′,7′-dihydro-4′H-spiro[cyclopropane-1,8′-pyrrolo[1,2-a]pyrazine]-6′-carboxamide trifluoroacetate], for which the Ki at MASP-2 (CCP1-CCP2-SP) is less than 500 nM; on human α-thrombin it was 500 to 2500 nM.

As for `Cc1cc(C)cc(CNc2ncc3n(c2=O)[C@H](C(=O)NCc2cc4cnc(C)cc4[nH]2)CC32CC2)c1` [Compound 124, (S)-3′-((3,5-dimethylbenzyl)amino)-N-((6-methyl-1H-pyrrolo[3,2-c]pyridin-2-yl)methyl)-4′-oxo-6′,7′-dihydro-4′H-spiro[cyclopropane-1,8′-pyrrolo[1,2-a]pyrazine]-6′-carboxamide trifluoroacetate], the Ki on MASP-2 (CCP1-CCP2-SP) is less than 500 nM; on human α-thrombin it was more than 25000 nM.

For `O=C(NCc1cc2cnccc2[nH]1)[C@@H]1CC2(CC2)c2cnc(NCc3ccccc3)c(=O)n21` [Compound 125, (S)-N-((1H-pyrrolo[3,2-c]pyridin-2-yl)methyl)-3′-(benzylamino)-4′-oxo-6′,7′-dihydro-4′H-spiro[cyclopropane-1,8′-pyrrolo[1,2-a]pyrazine]-6′-carboxamide], the inhibition constant (Ki) is less than 500 nM on MASP-2 (CCP1-CCP2-SP) and 2500 to 10000 nM at human α-thrombin.

`Cc1cc(C)cc(CNc2ncc3n(c2=O)[C@H](C(=O)NCc2cc4c(s2)CNC4)CC32CC2)c1` [Compound 126, (S)—N-((5,6-dihydro-4H-thieno[2,3-c]pyrrol-2-yl)methyl)-3′-((3,5-dimethylbenzyl)amino)-4′-oxo-6′,7′-dihydro-4′H-spiro[cyclopropane-1,8′-pyrrolo[1,2-a]pyrazine]-6′-carboxamide]: the inhibition constant (Ki) is less than 500 nM on MASP-2 (CCP1-CCP2-SP) and 500 to 2500 nM on human α-thrombin.

For the compound `O=C(NCc1cc2c(s1)CNC2)[C@@H]1CC2(CC2)c2cnc(NCc3ccccc3)c(=O)n21` [Compound 127, (S)-3′-(benzylamino)-N-((5,6-dihydro-4H-thieno[2,3-c]pyrrol-2-yl)methyl)-4′-oxo-6′,7′-dihydro-4′H-spiro[cyclopropane-1,8′-pyrrolo[1,2-a]pyrazine]-6′-carboxamide trifluoroacetate], the values for the inhibition constant (Ki) at MASP-2 (CCP1-CCP2-SP) and on human α-thrombin were less than 500 nM and 2500 to 10000 nM, respectively.

For `O=C(NCc1cc2cnccc2[nH]1)[C@@H]1CC2(CC2)c2c(Cl)nc(NCc3ccccc3)c(=O)n21` [Compound 128, (S)—N-((1H-pyrrolo[3,2-c]pyridin-2-yl)methyl)-3′-(benzylamino)-1′-chloro-4′-oxo-6′,7′-dihydro-4′H-spiro[cyclopropane-1,8′-pyrrolo[1,2-a]pyrazine]-6′-carboxamide], the inhibition constant Ki on MASP-2 (CCP1-CCP2-SP) was less than 500 nM; on human α-thrombin, 2500 to 10000 nM.

Regarding `CC[C@H]1C[C@@H](C(=O)NCc2cc3cnc(C)cc3[nH]2)n2c1cnc(NCc1cc(C)cc(C)c1)c2=O` [Compound 129, (6S,8S)-3-((3,5-dimethylbenzyl)amino)-8-ethyl-N-((6-methyl-1H-pyrrolo[3,2-c]pyridin-2-yl)methyl)-4-oxo-4,6,7,8-tetrahydropyrrolo[1,2-a]pyrazine-6-carboxamide], the Ki is less than 500 nM at MASP-2 (CCP1-CCP2-SP) and 10000 to 25000 nM at human α-thrombin.

Take `C[C@H]1C[C@@H](C(=O)NCc2cc3cnccc3[nH]2)n2c1c(Cl)nc(NCc1ccccc1)c2=O` [Compound 130, (6S,8S)—N-((1H-pyrrolo[3,2-c]pyridin-2-yl)methyl)-3-(benzylamino)-1-chloro-8-methyl-4-oxo-4,6,7,8-tetrahydropyrrolo[1,2-a]pyrazine-6-carboxamide]: the Ki at MASP-2 (CCP1-CCP2-SP) was less than 500 nM; at human α-thrombin it was more than 25000 nM.

As to `Cc1cc(C)cc(CNc2nc(Cl)c3n(c2=O)[C@H](C(=O)NCc2cc4cnccc4[nH]2)C[C@@H]3C)c1` [Compound 132, (6S,8S)-N-((1H-pyrrolo[3,2-c]pyridin-2-yl)methyl)-1-chloro-3-((3,5-dimethylbenzyl)amino)-8-methyl-4-oxo-4,6,7,8-tetrahydropyrrolo[1,2-a]pyrazine-6-carboxamide], the Ki at MASP-2 (CCP1-CCP2-SP) was less than 500 nM; at human α-thrombin it was more than 25000 nM.

On to `O=C(NCc1cc2cnccc2[nH]1)[C@@H]1CCc2c(Cl)nc(NCc3cccc(C4CC4)c3)c(=O)n21` [Compound 133, (S)-N-((1H-pyrrolo[3,2-c]pyridin-2-yl)methyl)-1-chloro-3-((3-cyclopropylbenzyl)amino)-4-oxo-4,6,7,8-tetrahydropyrrolo[1,2-a]pyrazine-6-carboxamide], for which the inhibition constant (Ki) is less than 500 nM at MASP-2 (CCP1-CCP2-SP) and 2500 to 10000 nM at human α-thrombin.

Turning to `CC[C@H]1C[C@@H](C(=O)NCc2ccc(N)nc2C)n2c1c(Cl)nc(NCc1ccccc1)c2=O` [Compound 134, (6S,8S)-N-((6-amino-2-methylpyridin-3-yl)methyl)-3-(benzylamino)-1-chloro-8-ethyl-4-oxo-4,6,7,8-tetrahydropyrrolo[1,2-a]pyrazine-6-carboxamide], the inhibitory constant (Ki) at MASP-2 (CCP1-CCP2-SP) is less than 500 nM; at human α-thrombin, 500 to 2500 nM.

With `Cc1nc(N)ccc1CNC(=O)[C@H]1CCc2c(Cl)nc(NCc3ccccc3)c(=O)n21` [Compound 135, (R)-N-((6-amino-2-methylpyridin-3-yl)methyl)-3-(benzylamino)-1-chloro-4-oxo-4,6,7,8-tetrahydropyrrolo[1,2-a]pyrazine-6-carboxamide], the values for the inhibitory constant (Ki) on MASP-2 (CCP1-CCP2-SP) and at human α-thrombin were less than 500 nM and 2500 to 10000 nM, respectively.

In the case of `Cc1nc(N)ccc1CNC(=O)[C@@H]1CCc2c(Cl)nc(NCc3cccnc3)c(=O)n21` [Compound 136, (S)-N-((6-amino-2-methylpyridin-3-yl)methyl)-1-chloro-4-oxo-3-((pyridin-3-ylmethyl)amino)-4,6,7,8-tetrahydropyrrolo[1,2-a]pyrazine-6-carboxamide], the inhibitory constant (Ki) on MASP-2 (CCP1-CCP2-SP) is less than 500 nM; at human α-thrombin it was 500 to 2500 nM.

In the case of `COc1cc(C)cc(CNc2ncc3n(c2=O)[C@H](C(=O)NCc2cc4cnc(C)cc4[nH]2)C[C@@H]3Cc2ccccc2)c1` [Compound 137, (6S,8S)-8-benzyl-3-((3-methoxy-5-methylbenzyl)amino)-N-((6-methyl-1H-pyrrolo[3,2-c]pyridin-2-yl)methyl)-4-oxo-4,6,7,8-tetrahydropyrrolo[1,2-a]pyrazine-6-carboxamide], the inhibition constant (Ki) at MASP-2 (CCP1-CCP2-SP) is less than 500 nM; on human α-thrombin, more than 25000 nM.
